Reference: ChEMBL document CHEMBL5465560, “Selectivity Literature for EUbOPEN Chemogenomic Library” (2024)

How the values were obtained:
[1] = biological target: Non-receptor tyrosine-protein kinase TYK2 (Homo sapiens, UniProt P29597); experiment: Selectivity interaction (KinomeScan (DiscoverX)) EUB0000092b TYK2; conditions: at 10 µM
[2] = biological target: STE20/SPS1-related proline-alanine-rich protein kinase (Homo sapiens) (UniProt Q9UEW8); experiment: Selectivity interaction (Kinase panel (KiNativ target engagement assay in Jurkat cells)) EUB0001635a STK39; assay type: cell-based; conditions: Selectivity number of off-targets 0.0, Selectivity number of targets 233.0, Source Knowledge https://www.sciencedirect.com/science/article/pii/S2451945619300674?via%3Dihub, at 1 µM
[3] = biological target: Dual specificity mitogen-activated protein kinase kinase 2 (Homo sapiens) (UniProt P36507); experiment: Selectivity interaction (KinomeScan (DiscoverX)) EUB0000607a MAP2K2; conditions: at 10 µM
Dual specificity mitogen-activated protein kinase kinase 2 (Homo sapiens), sequence (P36507 whole entry): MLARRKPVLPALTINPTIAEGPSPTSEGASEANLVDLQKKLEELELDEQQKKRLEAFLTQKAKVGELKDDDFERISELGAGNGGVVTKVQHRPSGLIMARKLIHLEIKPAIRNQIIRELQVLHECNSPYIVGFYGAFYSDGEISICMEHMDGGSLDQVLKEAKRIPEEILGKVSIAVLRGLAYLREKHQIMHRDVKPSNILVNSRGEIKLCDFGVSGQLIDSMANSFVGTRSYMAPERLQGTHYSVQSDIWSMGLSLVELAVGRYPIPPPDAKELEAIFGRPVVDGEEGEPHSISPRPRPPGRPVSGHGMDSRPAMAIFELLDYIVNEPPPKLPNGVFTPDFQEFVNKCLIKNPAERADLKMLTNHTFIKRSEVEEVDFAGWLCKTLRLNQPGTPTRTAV

[4] = biological target: T1, Ribosomal protein S6 kinase alpha-3 (Homo sapiens, UniProt P51812); experiment: Selectivity interaction (KinomeScan (DiscoverX)) EUB0001049a RPS6KA3; conditions: at 1 µM
T1 sequence (P51812 whole entry): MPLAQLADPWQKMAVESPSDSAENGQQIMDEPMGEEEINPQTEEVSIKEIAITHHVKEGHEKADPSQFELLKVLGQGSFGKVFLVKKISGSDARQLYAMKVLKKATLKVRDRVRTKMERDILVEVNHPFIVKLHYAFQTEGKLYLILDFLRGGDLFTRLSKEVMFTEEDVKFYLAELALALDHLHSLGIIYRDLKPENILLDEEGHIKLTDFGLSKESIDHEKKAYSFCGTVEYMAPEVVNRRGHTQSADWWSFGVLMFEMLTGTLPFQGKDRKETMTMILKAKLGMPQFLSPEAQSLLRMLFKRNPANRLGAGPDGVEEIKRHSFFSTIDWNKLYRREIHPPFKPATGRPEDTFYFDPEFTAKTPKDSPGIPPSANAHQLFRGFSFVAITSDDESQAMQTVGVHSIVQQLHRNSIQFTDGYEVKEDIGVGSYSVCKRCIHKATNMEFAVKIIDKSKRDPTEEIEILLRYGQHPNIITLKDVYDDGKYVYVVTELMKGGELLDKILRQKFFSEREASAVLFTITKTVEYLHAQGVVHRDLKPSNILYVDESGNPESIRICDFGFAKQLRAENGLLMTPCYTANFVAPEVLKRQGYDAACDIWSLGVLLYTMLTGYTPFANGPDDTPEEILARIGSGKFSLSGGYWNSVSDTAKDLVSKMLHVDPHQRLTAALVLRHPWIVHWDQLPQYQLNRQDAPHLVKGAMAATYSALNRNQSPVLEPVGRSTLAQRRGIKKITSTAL

[5] = biological target: Focal adhesion kinase 1 (Homo sapiens, UniProt Q05397); experiment: Selectivity interaction (KinomeScan (DiscoverX)) EUB0000695a PTK2; conditions: at 100 nM
Focal adhesion kinase 1, sequence (Q05397 2-1052 limits assumed): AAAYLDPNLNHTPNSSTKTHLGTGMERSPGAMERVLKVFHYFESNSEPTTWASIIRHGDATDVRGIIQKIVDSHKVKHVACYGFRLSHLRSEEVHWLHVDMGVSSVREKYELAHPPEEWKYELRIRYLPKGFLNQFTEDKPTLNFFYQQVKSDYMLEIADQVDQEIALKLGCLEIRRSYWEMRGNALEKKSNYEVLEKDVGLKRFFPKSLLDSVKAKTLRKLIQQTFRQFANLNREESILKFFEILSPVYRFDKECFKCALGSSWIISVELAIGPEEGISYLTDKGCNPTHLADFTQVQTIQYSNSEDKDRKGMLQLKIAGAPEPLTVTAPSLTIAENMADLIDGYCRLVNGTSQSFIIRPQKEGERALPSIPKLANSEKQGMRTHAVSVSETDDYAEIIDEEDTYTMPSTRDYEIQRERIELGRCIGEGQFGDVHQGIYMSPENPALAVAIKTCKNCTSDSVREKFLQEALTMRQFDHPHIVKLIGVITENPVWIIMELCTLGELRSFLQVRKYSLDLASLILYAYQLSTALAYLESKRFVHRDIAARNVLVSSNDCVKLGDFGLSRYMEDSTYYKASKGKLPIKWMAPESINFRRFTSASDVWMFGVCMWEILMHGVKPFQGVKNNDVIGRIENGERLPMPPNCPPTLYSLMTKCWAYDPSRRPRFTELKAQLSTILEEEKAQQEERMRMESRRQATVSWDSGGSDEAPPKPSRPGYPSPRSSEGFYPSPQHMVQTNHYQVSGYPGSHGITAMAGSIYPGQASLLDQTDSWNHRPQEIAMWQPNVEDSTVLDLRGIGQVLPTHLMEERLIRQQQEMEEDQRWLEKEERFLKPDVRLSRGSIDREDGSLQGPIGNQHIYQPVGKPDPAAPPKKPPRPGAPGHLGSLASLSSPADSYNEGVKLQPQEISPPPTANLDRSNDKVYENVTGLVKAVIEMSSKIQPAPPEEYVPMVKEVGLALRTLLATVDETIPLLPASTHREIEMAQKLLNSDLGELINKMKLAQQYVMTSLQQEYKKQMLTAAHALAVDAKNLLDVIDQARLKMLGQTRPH

[6] = biological target: T2, Serine/threonine-protein kinase tousled-like 1 (Homo sapiens) (UniProt Q9UKI8); experiment: Selectivity interaction (KinomeScan (DiscoverX)) EUB0000045b TLK1
T2 sequence (whole entry): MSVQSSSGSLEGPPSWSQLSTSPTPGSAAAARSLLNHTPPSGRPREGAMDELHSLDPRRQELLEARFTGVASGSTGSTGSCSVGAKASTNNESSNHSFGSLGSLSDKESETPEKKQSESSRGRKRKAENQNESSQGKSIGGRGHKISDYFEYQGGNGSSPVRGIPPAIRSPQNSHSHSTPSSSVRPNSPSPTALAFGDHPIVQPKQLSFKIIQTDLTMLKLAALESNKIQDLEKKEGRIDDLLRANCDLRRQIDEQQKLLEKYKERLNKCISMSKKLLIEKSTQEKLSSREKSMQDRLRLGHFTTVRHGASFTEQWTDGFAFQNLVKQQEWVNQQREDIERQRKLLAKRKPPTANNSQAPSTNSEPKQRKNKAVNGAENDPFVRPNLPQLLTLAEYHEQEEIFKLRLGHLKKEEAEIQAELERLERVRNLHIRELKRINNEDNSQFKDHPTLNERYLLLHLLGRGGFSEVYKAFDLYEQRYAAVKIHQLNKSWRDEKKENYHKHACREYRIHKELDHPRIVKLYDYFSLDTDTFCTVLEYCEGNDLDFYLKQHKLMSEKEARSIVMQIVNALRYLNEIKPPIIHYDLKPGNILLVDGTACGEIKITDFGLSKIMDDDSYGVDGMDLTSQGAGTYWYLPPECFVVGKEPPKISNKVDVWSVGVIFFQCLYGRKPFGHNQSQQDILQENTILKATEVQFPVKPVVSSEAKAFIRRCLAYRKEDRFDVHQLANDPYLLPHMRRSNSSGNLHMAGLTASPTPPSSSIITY

[7] = biological target: G protein-coupled receptor kinase 4 (Homo sapiens) (UniProt P32298); experiment: Selectivity interaction (KinomeScan (DiscoverX)) EUB0000618a GRK4; conditions: at 10 µM
G protein-coupled receptor kinase 4 (Homo sapiens), sequence (P32298 whole entry, looked up): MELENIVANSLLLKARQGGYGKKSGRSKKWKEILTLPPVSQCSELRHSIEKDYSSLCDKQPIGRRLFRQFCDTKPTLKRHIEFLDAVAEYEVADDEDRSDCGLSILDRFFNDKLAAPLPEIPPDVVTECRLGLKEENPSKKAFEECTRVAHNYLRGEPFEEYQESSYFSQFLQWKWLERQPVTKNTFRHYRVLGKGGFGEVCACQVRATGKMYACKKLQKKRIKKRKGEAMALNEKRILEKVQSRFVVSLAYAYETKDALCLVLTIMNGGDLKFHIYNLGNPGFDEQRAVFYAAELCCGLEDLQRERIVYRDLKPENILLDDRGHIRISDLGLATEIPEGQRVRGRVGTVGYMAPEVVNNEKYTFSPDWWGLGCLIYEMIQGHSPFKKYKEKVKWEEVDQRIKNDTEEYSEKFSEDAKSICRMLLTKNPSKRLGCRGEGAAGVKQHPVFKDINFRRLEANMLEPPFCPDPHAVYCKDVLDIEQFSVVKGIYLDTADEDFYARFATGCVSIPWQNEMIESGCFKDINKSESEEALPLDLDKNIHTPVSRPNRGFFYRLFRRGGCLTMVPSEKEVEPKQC

[8] = biological target: T3, Dual specificity mitogen-activated protein kinase kinase 6 (Homo sapiens) (UniProt P52564); experiment: Selectivity interaction (KinomeScan (DiscoverX)) EUB0000618a MAP2K6; conditions: at 10 µM
T3 sequence (whole entry): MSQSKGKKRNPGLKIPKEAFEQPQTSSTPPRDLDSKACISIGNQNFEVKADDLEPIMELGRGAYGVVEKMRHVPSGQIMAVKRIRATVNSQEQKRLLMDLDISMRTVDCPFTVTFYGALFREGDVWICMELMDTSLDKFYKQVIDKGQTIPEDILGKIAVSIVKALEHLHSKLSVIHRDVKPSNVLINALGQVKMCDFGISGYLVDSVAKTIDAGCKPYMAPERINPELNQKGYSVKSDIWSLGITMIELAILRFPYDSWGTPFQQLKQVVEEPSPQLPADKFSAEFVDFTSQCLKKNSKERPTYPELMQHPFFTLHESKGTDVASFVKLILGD

[9] = biological target: T1, Ribosomal protein S6 kinase alpha-3; experiment: Selectivity interaction (Kinase screening (Nanosyn)) EUB0000604a RPS6KA3
[10] = biological target: T4, Serine/threonine-protein kinase Nek1 (Homo sapiens) (UniProt Q96PY6); experiment: Selectivity interaction (KinomeScan (DiscoverX)) EUB0001619a NEK1; conditions: at 1 µM
T4 sequence (whole entry): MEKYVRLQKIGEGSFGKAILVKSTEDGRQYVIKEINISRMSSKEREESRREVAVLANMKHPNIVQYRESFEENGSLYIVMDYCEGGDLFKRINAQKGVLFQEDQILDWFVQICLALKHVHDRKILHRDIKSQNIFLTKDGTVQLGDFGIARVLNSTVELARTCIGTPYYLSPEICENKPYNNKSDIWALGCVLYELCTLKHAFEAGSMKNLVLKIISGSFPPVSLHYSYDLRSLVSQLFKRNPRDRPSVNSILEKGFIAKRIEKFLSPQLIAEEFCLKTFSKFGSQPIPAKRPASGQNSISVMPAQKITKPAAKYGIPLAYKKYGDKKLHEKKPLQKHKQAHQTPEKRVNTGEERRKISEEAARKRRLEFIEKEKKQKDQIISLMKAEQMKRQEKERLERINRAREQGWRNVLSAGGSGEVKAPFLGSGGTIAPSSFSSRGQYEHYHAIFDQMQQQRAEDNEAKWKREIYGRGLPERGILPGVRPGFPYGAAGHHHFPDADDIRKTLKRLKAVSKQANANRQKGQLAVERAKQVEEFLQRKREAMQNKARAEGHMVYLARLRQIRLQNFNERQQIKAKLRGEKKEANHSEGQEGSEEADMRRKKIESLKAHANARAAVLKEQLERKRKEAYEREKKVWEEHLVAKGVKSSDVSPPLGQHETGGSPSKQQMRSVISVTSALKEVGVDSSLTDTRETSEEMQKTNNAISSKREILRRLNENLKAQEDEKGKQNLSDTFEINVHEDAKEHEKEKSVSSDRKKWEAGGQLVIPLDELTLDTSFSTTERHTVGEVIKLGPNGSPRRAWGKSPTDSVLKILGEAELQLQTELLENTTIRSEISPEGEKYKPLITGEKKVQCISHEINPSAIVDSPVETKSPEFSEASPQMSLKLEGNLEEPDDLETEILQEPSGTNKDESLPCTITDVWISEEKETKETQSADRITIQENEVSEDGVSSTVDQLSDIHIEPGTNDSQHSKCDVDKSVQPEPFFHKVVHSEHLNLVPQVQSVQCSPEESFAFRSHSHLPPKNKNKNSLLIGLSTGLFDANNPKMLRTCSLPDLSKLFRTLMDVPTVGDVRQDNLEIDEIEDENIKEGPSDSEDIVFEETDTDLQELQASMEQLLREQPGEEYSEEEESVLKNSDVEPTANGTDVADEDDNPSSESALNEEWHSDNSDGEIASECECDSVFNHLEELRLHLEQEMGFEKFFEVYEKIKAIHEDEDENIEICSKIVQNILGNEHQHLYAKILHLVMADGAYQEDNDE

Non-receptor tyrosine-protein kinase TYK2, sequence (P29597 whole entry): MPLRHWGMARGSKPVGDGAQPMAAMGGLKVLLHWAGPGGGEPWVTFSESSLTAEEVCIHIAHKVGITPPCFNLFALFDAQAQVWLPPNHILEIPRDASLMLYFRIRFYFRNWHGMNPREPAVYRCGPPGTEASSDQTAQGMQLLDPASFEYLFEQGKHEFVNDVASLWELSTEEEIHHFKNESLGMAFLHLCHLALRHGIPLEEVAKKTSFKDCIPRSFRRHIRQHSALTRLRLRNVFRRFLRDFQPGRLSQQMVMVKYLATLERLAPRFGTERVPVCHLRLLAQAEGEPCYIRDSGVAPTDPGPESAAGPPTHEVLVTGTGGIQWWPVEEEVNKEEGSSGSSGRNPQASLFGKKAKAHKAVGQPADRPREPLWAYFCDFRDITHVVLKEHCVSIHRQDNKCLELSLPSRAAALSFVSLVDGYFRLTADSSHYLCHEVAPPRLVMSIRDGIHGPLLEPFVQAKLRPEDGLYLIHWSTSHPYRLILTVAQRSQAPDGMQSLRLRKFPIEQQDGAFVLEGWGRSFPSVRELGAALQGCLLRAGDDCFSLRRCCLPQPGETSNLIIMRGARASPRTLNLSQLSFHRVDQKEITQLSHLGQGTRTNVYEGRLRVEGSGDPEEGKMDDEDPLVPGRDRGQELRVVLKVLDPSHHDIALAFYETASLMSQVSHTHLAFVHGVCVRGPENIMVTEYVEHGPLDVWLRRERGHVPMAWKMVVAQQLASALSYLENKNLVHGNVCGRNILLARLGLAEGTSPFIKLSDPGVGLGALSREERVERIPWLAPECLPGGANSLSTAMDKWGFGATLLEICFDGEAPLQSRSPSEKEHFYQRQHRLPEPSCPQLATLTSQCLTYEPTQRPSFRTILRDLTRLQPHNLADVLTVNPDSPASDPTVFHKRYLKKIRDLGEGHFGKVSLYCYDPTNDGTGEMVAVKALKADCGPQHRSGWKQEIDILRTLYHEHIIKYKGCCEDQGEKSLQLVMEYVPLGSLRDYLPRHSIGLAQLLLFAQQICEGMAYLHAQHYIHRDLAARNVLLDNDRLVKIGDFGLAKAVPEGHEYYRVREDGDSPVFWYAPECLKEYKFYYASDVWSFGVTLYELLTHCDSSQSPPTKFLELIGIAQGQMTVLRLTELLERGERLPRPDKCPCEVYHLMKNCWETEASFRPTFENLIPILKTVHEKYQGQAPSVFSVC

`CCC(=O)N1CCN(c2ccc(-n3c(=O)ccc4cnc5ccc(-c6cnc7ccccc7c6)cc5c43)cc2C(F)(F)F)CC1` showed a % of control [1] of 55%.

With `C=CC(=O)Nc1ccc(C(=O)Nc2[nH]nc3c2CN(C(=O)N[C@H](CN(C)C)c2ccccc2)C3(C)C)cc1` the % of engagement [2] was 11.5%.

Compound `CNC(=O)Nc1ccc(-c2nc(N3CC4CCC(C3)O4)c3cnn(C4CCC5(CC4)OCCO5)c3n2)cc1` has a % of control [3] of 100%.

For `COc1cc(Nc2nc(C)cc(-c3cnn4nc(OC)ccc34)n2)cc(C(F)(F)F)c1`, the % of control [4] was 98%.

Work on `Cc1cc(F)c(C(=O)Nc2cccc(-c3nncn3C(C)C)n2)cc1-n1cnc(C2CC2)c1` yielded a % of control [5] of 100%.

For `C=CC(=O)Nc1cc(-n2c(=O)ccc3cnc4ccc(-c5ccc(NS(C)(=O)=O)cc5)cc4c32)ccc1C`, the % of control ([6]; at 1 µM) was 86% and the % of control ([6]; at 10 µM) was 96%.

Compound `O[C@H]1CC[C@H](Nc2ncc3nc(Nc4c(F)cc(F)cc4F)n([C@H]4CCOC4)c3n2)CC1` has a % of control [7] of 98% and a % of control [8] of 88%.

Work on `Cc1cnc(Nc2ccc(F)cc2Cl)nc1-c1c[nH]c(C(=O)N[C@H](CO)c2cccc(Cl)c2)c1` yielded a % of inhibition [9] of 6%.

`N#Cc1cccc(-c2c[nH]c3ncnc(N4CCOCC4)c23)c1` showed a % of control [10] of 100%.
